In PubChem BioAssay (NCI):
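Growth conditions: 96-well plates. Treatment: test compound, 48 hours, 5 concentrations. Analysis: linear interpolation between bracketing concentrations; unreached endpoints set to highest concentration. GI50 is the concentration that inhibits growth by half. The concentration for full growth arrest is given as TGI.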

Tests used:
Assay in all cases: NCI-60 cell line screen, 48 h; in the data active means GI50 below about 0.43 µM; inactive means the rest
SK-MEL-28 melanoma = test system: SK-MEL-28 melanoma
MCF7 breast = test system: MCF7 breast
SF-268 CNS = test system: SF-268 CNS
NCI-H522 lung = test system: NCI-H522 lung
MDA-MB-435 = test system: MDA-MB-435
UO-31 renal = test system: UO-31 renal
DU-145 prostate = test system: DU-145 prostate
SF-295 CNS = test system: SF-295 CNS
SF-539 CNS = test system: SF-539 CNS
SNB-19 CNS = test system: SNB-19 CNS
MALME-3M melanoma = test system: MALME-3M melanoma
SNB-75 CNS = test system: SNB-75 CNS
HCT-116 colon = test system: HCT-116 colon
ACHN renal = test system: ACHN renal
NCI-H23 lung = test system: NCI-H23 lung
HOP-62 NSCLC = test system: HOP-62 NSCLC
HOP-92 NSCLC = test system: HOP-92 NSCLC
NCI/ADR-RES ovarian = test system: NCI/ADR-RES ovarian
HS 578T breast = test system: HS 578T breast
SN12C renal = test system: SN12C renal
CCRF-CEM leukemia = test system: CCRF-CEM leukemia
M14 melanoma = test system: M14 melanoma
SK-MEL-5 melanoma = test system: SK-MEL-5 melanoma
RXF 393 renal = test system: RXF 393 renal
SW-620 colon = test system: SW-620 colon
HT29 colon = test system: HT29 colon
OVCAR-8 ovarian = test system: OVCAR-8 ovarian
RPMI-8226 leukemia = test system: RPMI-8226 leukemia
SK-OV-3 ovarian = test system: SK-OV-3 ovarian
786-0 renal = test system: 786-0 renal
SK-MEL-2 melanoma = test system: SK-MEL-2 melanoma
PC-3 prostate = test system: PC-3 prostate
LOX IMVI melanoma = test system: LOX IMVI melanoma
UACC-62 melanoma = test system: UACC-62 melanoma
OVCAR-5 ovarian = test system: OVCAR-5 ovarian
CAKI-1 renal = test system: CAKI-1 renal
OVCAR-3 ovarian = test system: OVCAR-3 ovarian
COLO 205 colon = test system: COLO 205 colon
T-47D breast = test system: T-47D breast
UACC-257 melanoma = test system: UACC-257 melanoma
SR leukemia = test system: SR leukemia
OVCAR-4 ovarian = test system: OVCAR-4 ovarian
K-562 leukemia = test system: K-562 leukemia
MDA-MB-231 breast = test system: MDA-MB-231 breast
A498 renal = test system: A498 renal
IGROV1 ovarian = test system: IGROV1 ovarian
NCI-H460 lung = test system: NCI-H460 lung
HCC-2998 colon = test system: HCC-2998 colon
HL-60(TB) leukemia = test system: HL-60(TB) leukemia
MOLT-4 leukemia = test system: MOLT-4 leukemia
U251 CNS = test system: U251 CNS
TK-10 renal = test system: TK-10 renal
A549 NSCLC = test system: A549 NSCLC
BT-549 breast = test system: BT-549 breast
EKVX NSCLC = test system: EKVX NSCLC
HCT-15 colon = test system: HCT-15 colon
KM12 colon = test system: KM12 colon
NCI-H226 lung = test system: NCI-H226 lung

O=C(/C=C/c1ccccc1Cl)Nc1ncc(Cc2cc(Cl)ccc2Cl)s1
active: GI50 (MDA-MB-435) 0.263 µM | GI50 (K-562 leukemia) 0.406 µM
8.4 µM: TGI (BT-549 breast)
inactive: GI50 (SK-MEL-28 melanoma) 9.29 µM | GI50 (MCF7 breast) 0.674 µM | GI50 (SF-268 CNS) 12.5 µM | GI50 (NCI-H522 lung) 0.7 µM | GI50 (UO-31 renal) 6.52 µM | GI50 (DU-145 prostate) 2.04 µM | GI50 (SF-295 CNS) 2.34 µM | GI50 (SF-539 CNS) 2.79 µM | GI50 (SNB-19 CNS) 4.23 µM | GI50 (MALME-3M melanoma) 4.54 µM | GI50 (SNB-75 CNS) 0.576 µM | GI50 (HCT-116 colon) 0.939 µM | GI50 (ACHN renal) 8.28 µM | GI50 (NCI-H23 lung) 0.686 µM | GI50 (HOP-62 NSCLC) 6.14 µM | GI50 (HOP-92 NSCLC) 1.3 µM | GI50 (NCI/ADR-RES ovarian) 2.99 µM | GI50 (HS 578T breast) 1.14 µM | GI50 (SN12C renal) 1.95 µM | GI50 (CCRF-CEM leukemia) 0.909 µM | GI50 (M14 melanoma) 2.04 µM | GI50 (SK-MEL-5 melanoma) 2.8 µM | GI50 (RXF 393 renal) 0.916 µM | GI50 (SW-620 colon) 1.25 µM | GI50 (HT29 colon) 2.46 µM | GI50 (OVCAR-8 ovarian) 4.03 µM | GI50 (RPMI-8226 leukemia) 1.36 µM | GI50 (SK-OV-3 ovarian) 7.39 µM | GI50 (786-0 renal) 5.16 µM | GI50 (SK-MEL-2 melanoma) 3.01 µM | GI50 (PC-3 prostate) 3.86 µM | GI50 (LOX IMVI melanoma) 1.85 µM | GI50 (UACC-62 melanoma) 3.27 µM | GI50 (OVCAR-5 ovarian) 2.36 µM | GI50 (CAKI-1 renal) 4.23 µM | GI50 (OVCAR-3 ovarian) 3.44 µM | GI50 (COLO 205 colon) 1.21 µM | GI50 (T-47D breast) 6.72 µM | GI50 (UACC-257 melanoma) 9.11 µM | GI50 (SR leukemia) 0.534 µM | GI50 (OVCAR-4 ovarian) 21.3 µM | GI50 (MDA-MB-231 breast) 2.66 µM | GI50 (A498 renal) 0.975 µM | GI50 (IGROV1 ovarian) 1.31 µM | GI50 (NCI-H460 lung) 3.6 µM | GI50 (HCC-2998 colon) 2.71 µM | GI50 (HL-60(TB) leukemia) 1.24 µM | GI50 (MOLT-4 leukemia) 1.21 µM | GI50 (U251 CNS) 2.9 µM | GI50 (TK-10 renal) 7.13 µM | GI50 (A549 NSCLC) 2.09 µM | GI50 (BT-549 breast) 1.15 µM | GI50 (EKVX NSCLC) 2.4 µM | GI50 (HCT-15 colon) 0.634 µM | GI50 (KM12 colon) 1.21 µM | GI50 (NCI-H226 lung) 9.17 µM
71.2 µM: TGI (SF-295 CNS)
13.6 µM: TGI (SF-539 CNS)
> 63.8 µM: TGI (RPMI-8226 leukemia)
> 31.7 µM: TGI (COLO 205 colon)
2.56 µM: TGI (NCI-H522 lung)
> 100 µM: TGI (SK-MEL-28 melanoma) | TGI (MCF7 breast) | TGI (SF-268 CNS) | TGI (UO-31 renal) | TGI (DU-145 prostate) | TGI (SNB-19 CNS) | TGI (MALME-3M melanoma) | TGI (HCT-116 colon) | TGI (ACHN renal) | TGI (NCI-H23 lung) | TGI (HOP-62 NSCLC) | TGI (NCI/ADR-RES ovarian) | TGI (SN12C renal) | TGI (CCRF-CEM leukemia) | TGI (M14 melanoma) | TGI (SK-MEL-5 melanoma) | TGI (SW-620 colon) | TGI (HT29 colon) | TGI (OVCAR-8 ovarian) | TGI (SK-OV-3 ovarian) | TGI (786-0 renal) | TGI (SK-MEL-2 melanoma) | TGI (PC-3 prostate) | TGI (LOX IMVI melanoma) | TGI (UACC-62 melanoma) | TGI (OVCAR-5 ovarian) | TGI (CAKI-1 renal) | TGI (OVCAR-3 ovarian) | TGI (T-47D breast) | TGI (UACC-257 melanoma) | TGI (SR leukemia) | TGI (OVCAR-4 ovarian) | TGI (K-562 leukemia) | TGI (MDA-MB-231 breast) | TGI (IGROV1 ovarian) | TGI (NCI-H460 lung) | TGI (HCC-2998 colon) | TGI (MOLT-4 leukemia) | TGI (U251 CNS) | TGI (TK-10 renal) | TGI (A549 NSCLC) | TGI (EKVX NSCLC) | TGI (HCT-15 colon) | TGI (KM12 colon) | TGI (NCI-H226 lung)
9.82 µM: TGI (SNB-75 CNS)
5.7 µM: TGI (HL-60(TB) leukemia)
0.79 µM: TGI (MDA-MB-435)
3.46 µM: TGI (RXF 393 renal)
